For this experiment, the system named is HeLa. The experiment in a line: Cytotoxicity against human HeLa cells after 72 hrs by MTT assay. The format is functional, cell-based. (Tetrazolium assays rely on reduction of a dye to a coloured formazan, in cell work by metabolically active cells.)

Usually IC50 stands for the concentration that gives 50% inhibition.

In the case of `N=C(N)NCCSc1nc(-c2c[nH]c3cc(Br)ccc23)cnc1-c1c[nH]c2cc(Br)ccc12`, the IC50 came to 4.2 µM. `N=C(N)NCCSc1nc(-c2c[nH]c3ccccc23)cnc1-c1c[nH]c2cc(Br)ccc12` displayed an IC50 of 4.6 µM.

The compound `O=C(c1nc(-c2c[nH]c3cc(Br)ccc23)c[nH]1)c1c[nH]c2cc(O)ccc12` [BROMOTOPSENTIN] gave an IC50 of 1.7 µM. Against the preceding compound, the IC50 is about 2.7-fold lower. Compound `O=C(c1nc(-c2c[nH]c3ccccc23)c[nH]1)c1c[nH]c2cc(O)ccc12` [TOPSENTIN] returned an IC50 of 4.4 µM. Against the preceding compound, the IC50 is about 2.6-fold higher.

The values are drawn from ChEMBL document CHEMBL4002553, “Dragmacidins G and H, Bisindole Alkaloids Tethered by a Guanidino Ethylthiopyrazine Moiety, from a Lipastrotethya sp. Marine Sponge” (J Nat Prod, 2016).
